Data on one compound can be found in patent publication US4757079A, “Anti-hypertensive piperidine compounds” (Dynamac Corporaton, priority 1986, dated 1988).

Counter-ions that a name gives are not always drawn.

Data set [1] has as its system peripheral muscarinic receptors. Briefly: response to vagal stimulation or to exogenous acetylcholine in the cat. As to conditions: 1 to 10 mg/kg i.v. Type of data set: in vivo.
Data set [2] relates to cat. Briefly: heart rate and mean blood pressure in cats pretreated with hexamethonium and atropine. Type of data set: in vivo. As to conditions: compared with absence of the blocking agents.
Data set [3] has as its system rat hemidiaphragm preparation. Kind of data set: rat hemidiaphragm preparation, perfusate volume (vasodilatory effect).
The test system of data set [4] is cat. Kind of data set: blood pressure and heart rate in the cat (i.v.). Type of data set: in vivo.
Data set [5] concerns guinea pig ileum. Kind of data set: anticholinergic activity on the guinea pig ileum.
In data set [6] the test system is neuromuscular function. Kind of data set: neuromuscular twitch response in the cat. Type of data set: in vivo.
The test system of data set [7] is nictitating membrane. Kind of data set: responsiveness of the nictitating membrane to pre- or post-ganglionic stimulation in the cat. Format: in vivo. As to conditions: 1 to 10 mg/kg i.v.

As for `CN1CCC(/C=C/c2cccc3ccccc23)CC1` [B-120, 1-methyl-4-(1-naphthylvinyl)piperidine hydrochloride], in data set [1], the “response to exogenous acetylcholine” value is reported as “did not alter the response” and the “response to vagal stimulation” value is “did not alter the response”. Besides, in data set [2], the “reduction in heart rate” value is “comparable to that induced in the absence of the blocking agents” and the “reduction in mean blood pressure” value is recorded as “comparable to that induced in the absence of the blocking agents”. Besides, the “increase in perfusate volume” value in data set [3] (17.5 mg/L) is on record as “not significant”. For the same compound, the “perfusate volume after removal of the B-120” value in data set [3] (after 35 mg/L) is “returned to normal”. In data set [4] (5.0 mg/kg i.v., cat), the “Heart Rate” value is listed as 90 % Control, the “Mean Blood Pressure” value is given as 60 % Control and the “Pulse Pressure” value turned out to be 110 % Control. Besides, in data set [4] (10.0 mg/kg i.v., cat), the “Heart Rate” value came to 80 % Control, the “Mean Blood Pressure” value was determined as 30 % Control and the “Pulse Pressure” value came to 70 % Control. In data set [4] (50 mg/kg i.v., cat), the heart rate rhythm result is given as “did not show evidence of abnormal rhythm”. In addition, in data set [4] (50.0 mg/kg i.v., cat), the “Heart Rate” value is 0 % Control, the “Mean Blood Pressure” value is reported as 0 % Control and the “Pulse Pressure” value is given as 0 % Control. In data set [4] (0.5 to 50 mg/kg i.v., cat), the Heart Rate entry was “dose-related decrease”, the Mean Blood Pressure entry was “dose-related decrease” and the “diastolic versus systolic blood pressure” value is “greater decrease in diastolic than systolic blood pressure”. In addition, the death entry in data set [4] (in vivo) is recorded as “death appeared to be caused by hypotensive crisis”. Further, in data set [5], the anticholinergic activity result is recorded as “essentially devoid of anticholinergic activity”. Further, the “anticholinergic potency on a relative scale vs atropine sulfate” value in data set [5] (relative to atropine sulfate) is 5.5×10^-4. In addition, in data set [6], the neuromuscular twitch response result was “no significant decrease”. In addition, the “responsiveness of the nictitating membrane to pre- or post-ganglionic stimulation” value in data set [7] is recorded as “did not diminish the responsiveness”.
